Experimental data: patent US20210395651A1, “COMPOUNDS STABILIZING HYDROLASES IN LIQUIDS” (BASF SE, priority 2018, published 2021)

Molecular target: T1, Lipolase® 100L (Thermomyces lanuginosus, UniProt O59952)
T1 construct: purchased Sigma-Aldrich
T1 sequence (O59952 23-291): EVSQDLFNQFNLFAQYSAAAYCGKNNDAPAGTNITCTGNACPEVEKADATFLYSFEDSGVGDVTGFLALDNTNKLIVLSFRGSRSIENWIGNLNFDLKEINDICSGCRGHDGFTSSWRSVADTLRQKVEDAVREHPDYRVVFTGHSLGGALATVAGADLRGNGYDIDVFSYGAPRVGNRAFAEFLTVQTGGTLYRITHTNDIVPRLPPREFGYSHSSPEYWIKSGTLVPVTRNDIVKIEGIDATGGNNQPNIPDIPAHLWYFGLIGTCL
Assay: Lipase storage stability in liquid formulations at 37° C. (pNP-valerate activity)
Format: biochemical, Thermomyces lanuginosa
Conditions: for lipase activity, 3 d: 3 d storage at 37° C.; for lipase activity, 7 d: 7 d storage at 37° C.; for lipase activity, 14 d: 14 d storage at 37° C.; for lipase activity, 21 d: 21 d storage at 37° C.; for lipase activity, 28 d: 28 d storage at 37° C.; for lipase activity, 35 d: 35 d storage at 37° C.; for lipase activity, T0: relative to 100% value of reference formulation at time 0
Experimental: The storage stability of Lipase was assessed at 37° C.
Base test formulations were manufactured by making base formulations I to V by mixing the components according to Table 1.
The respective component (a) or comparative compound was added, if applicable, to the respective base formulation in amounts as indicated in Table 1.
Lipase used: Lipolase® 100L (CAS-No. 9001-62-1, EC-No. 232-619-9) was purchased from Sigma-Aldrich.
The amount of lipase as provided in Table 1 refers to active protein.
Water was added to accomplish the balance to 100.
Lipolase activity at certain points in time as indicated in Table 2 was be determined by employing pNitrophenol-valerate (2.4 mM pNP-C5 in 100 mM Tris pH 8.0, 0.01% Triton X100) as a substrate. The absorption at 405 nm was measured at 20° C. every 30 seconds over 5 minutes.
The slope (absorbance increase at 405 nm per minute) of the time dependent absorption-curve is directly proportional to the activity of the lipase.
The […] activity values provided in Table 2 were calculated referring to the 100% value determined in the reference formulation at the time 0.
The nomenclature of formulations is as follows: the Roman number before the full stop characterizes the base formulation, the Arabian number the type of compound (A.# compound according to invention (component (a)); (B.#) comparative compound).

[1] = base formulation I. (Lipolase 0.2 wt%, tested compound 2.5 wt%)
[2] = base formulation II. (Lipolase 0.2 wt%, tested compound 2.5 wt%)
[3] = base formulation III. (Lipolase 0.2 wt%, tested compound 2.0 wt%)
[4] = base formulation IV. (Lipolase 0.2 wt%, tested compound 2.0 wt%)
[5] = base formulation V. (Lipolase 0.2 wt%, tested compound 2.0 wt%)

CCOC(=O)CC(O)(CC(=O)OCC)C(=O)OCC [A.1, Triethylcitrate]
lipase activity, 3 d [1]: 102%
lipase activity, 7 d [1]: 96%
lipase activity, 14 d [1]: 94%
lipase activity, 21 d [1]: 87%
lipase activity, 28 d [1]: 85%
lipase activity, 35 d [1]: 80%
lipase activity, T0 [1]: 100%
lipase activity, 3 d [2]: 101%
lipase activity, 7 d [2]: 94%
lipase activity, 14 d [2]: 90%
lipase activity, 21 d [2]: 88%
lipase activity, 28 d [2]: 83%
lipase activity, 35 d [2]: 80%
lipase activity, T0 [2]: 100%
lipase activity, 3 d [3]: 98%
lipase activity, 7 d [3]: 96%
lipase activity, 14 d [3]: 93%
lipase activity, 21 d [3]: 90%
lipase activity, 28 d [3]: 85%
lipase activity, 35 d [3]: 82%
lipase activity, T0 [3]: 100%
lipase activity, 3 d [4]: 96%
lipase activity, 7 d [4]: 94%
lipase activity, 14 d [4]: 93%
lipase activity, 21 d [4]: 88%
lipase activity, 28 d [4]: 85%
lipase activity, 35 d [4]: 82%
lipase activity, T0 [4]: 98%
lipase activity, 3 d [5]: 96%
lipase activity, 7 d [5]: 93%
lipase activity, 14 d [5]: 89%
lipase activity, 21 d [5]: 84%
lipase activity, 28 d [5]: 81%
lipase activity, 35 d [5]: 79%
lipase activity, T0 [5]: 100%

CCCOC(=O)CC(O)(CC(=O)OCCC)C(=O)OCCC [A.2, Tripropylcitrate]
lipase activity, 3 d [1]: 100%
lipase activity, 7 d [1]: 98%
lipase activity, 14 d [1]: 94%
lipase activity, 21 d [1]: 90%
lipase activity, 28 d [1]: 87%
lipase activity, 35 d [1]: 82%
lipase activity, T0 [1]: 101%
lipase activity, 3 d [3]: 100%
lipase activity, 7 d [3]: 101%
lipase activity, 14 d [3]: 97%
lipase activity, 21 d [3]: 94%
lipase activity, 28 d [3]: 90%
lipase activity, 35 d [3]: 87%
lipase activity, T0 [3]: 102%

CCCCOC(=O)CC(O)(CC(=O)OCCCC)C(=O)OCCCC [A.3, Tributylcitrate]
lipase activity, 3 d [4]: 100%
lipase activity, 7 d [4]: 96%
lipase activity, 14 d [4]: 95%
lipase activity, 21 d [4]: 90%
lipase activity, 28 d [4]: 88%
lipase activity, 35 d [4]: 85%
lipase activity, T0 [4]: 99%
lipase activity, 3 d [5]: 97%
lipase activity, 7 d [5]: 92%
lipase activity, 14 d [5]: 88%
lipase activity, 21 d [5]: 83%
lipase activity, 28 d [5]: 80%
lipase activity, 35 d [5]: 73%
lipase activity, T0 [5]: 101%

CCCCOC(=O)CC(CC(=O)OCCCC)(OC(C)=O)C(=O)OCCCC [A.4, Acetyltributylcitrate]
lipase activity, 3 d [1]: 104%
lipase activity, 7 d [1]: 99%
lipase activity, 14 d [1]: 93%
lipase activity, 21 d [1]: 88%
lipase activity, 28 d [1]: 83%
lipase activity, 35 d [1]: 78%
lipase activity, T0 [1]: 102%
lipase activity, 3 d [4]: 97%
lipase activity, 7 d [4]: 95%
lipase activity, 14 d [4]: 93%
lipase activity, 21 d [4]: 89%
lipase activity, 28 d [4]: 86%
lipase activity, 35 d [4]: 83%
lipase activity, T0 [4]: 101%
lipase activity, 3 d [5]: 100%
lipase activity, 7 d [5]: 94%
lipase activity, 14 d [5]: 90%
lipase activity, 21 d [5]: 85%
lipase activity, 28 d [5]: 80%
lipase activity, 35 d [5]: 74%
lipase activity, T0 [5]: 101%

CCOC(=O)CC(CC(=O)OCC)(OC(C)=O)C(=O)OCC [A.5, Acetyltriethylcitrate]
lipase activity, 3 d [1]: 100%
lipase activity, 7 d [1]: 97%
lipase activity, 14 d [1]: 92%
lipase activity, 21 d [1]: 86%
lipase activity, 28 d [1]: 81%
lipase activity, 35 d [1]: 74%
lipase activity, T0 [1]: 97%
lipase activity, 3 d [2]: 98%
lipase activity, 7 d [2]: 97%
lipase activity, 14 d [2]: 93%
lipase activity, 21 d [2]: 90%
lipase activity, 28 d [2]: 85%
lipase activity, 35 d [2]: 81%
lipase activity, T0 [2]: 102%
lipase activity, 3 d [3]: 95%
lipase activity, 7 d [3]: 93%
lipase activity, 14 d [3]: 88%
lipase activity, 21 d [3]: 85%
lipase activity, 28 d [3]: 80%
lipase activity, 35 d [3]: 77%
lipase activity, T0 [3]: 98%
